From paper PMC6100703, “Rapid, simple, and clinically applicable high-performance liquid chromatography method for clinical determination of plasma colistin concentrations” (Journal of Pharmaceutical Health Care and Sciences, 2018)
In brackets after ≈: the same amount, converted by molar mass. Read-outs that look alike come from different tables or passages of the source.

What was measured:
[1] = test system: MDRP with metallo-beta-lactamase (multidrug-resistant Pseudomonas aeruginosa); assay: Minimum inhibitory concentrations for the blood culture isolate of the patient; format: cell-based; conditions: for MIC: Pseudomonas aeruginosa, read-out: minimum inhibitory concentration
[2] = test system: multidrug-resistant Pseudomonas aeruginosa infection; conditions: HD patient with MDRP infection; CMS 75 mg every 24 h after loading dose 250 mg, in combination with meropenem 1 g every 24 h; after a few days
Description: (§1) A patient (weight 52 kg, height 153.2 cm) with antineutrophilic cytoplasmic antibody-positive vasculitis undergoing renal replacement (intermittent haemodialysis, HD) was admitted to the hospital for rituximab and steroid pulse therapy. The HD patient’s disease had been complicated by Pneumocystis jiroveci pneumonia, herpes zoster, and MDRP infections. […] With the preliminary information of positive blood cultures, empiric treatment with cefepime (1 g every 12 h) was performed over 5 d. […] In addition, the following treatment parameters were employed: dialysate flow rate, 500 mL/min; blood flow rate, 100 mL/min; membrane surface area, 1.5 m^2; membrane type, APS-15MD New; HD frequency, twice per week; and session duration, 3 h. Samples were collected immediately prior to a dose or immediately prior to the next dose if CMS was not being administered every 24 h. The actual times of CMS administration and blood sampling were recorded. Samples were collected in potassium (K)2-ethylenediaminetetraacetic acid (EDTA)-containing tubes and centrifuged for 15 min within 2 h of collection. The resulting plasma sample was measured on the same day as blood collection. The HD clearance (CLHD) for colistin was calculated every hour during the start and end of the HD session as: […]

[3] = Derivative stability (FMOC-Cl derivatives in eluted solution); format: physicochemical; conditions: mean ± SD; for Refrigerated, recovery relative to freshly prepared samples: 4 °C; for Refrigerated, recovery relative to freshly prepared samples / Room temperature, recovery relative to freshly prepared samples / Frozen, recovery relative to freshly prepared samples: 7 d, HPLC-fluorescence peak area; for Refrigerated, recovery relative to freshly prepared samples / Frozen, recovery relative to freshly prepared samples: dark; for Room temperature, recovery relative to freshly prepared samples: 25 ± 1 °C, normal fluorescent light; for Freeze-thaw, recovery relative to freshly prepared samples: three cycles −23 °C to room temperature on consecutive days; for Frozen, recovery relative to freshly prepared samples: −23 °C, closed glass test tubes
Description: The derivative stabilities of the samples containing 0.10 and 8.0 μg/mL of the standard colistin solution and the internal standard were evaluated at − 23 (frozen), 4 (refrigerated), and 25 ± 1 °C (room temperature) over 7 d. Freeze-thaw stability was assessed after three complete freeze-thaw cycles (− 23 °C to room temperature) on consecutive days. The stability of the target compounds was presented as the recovery (%) relative to the freshly prepared samples. The solutions at room temperature were exposed to normal fluorescent light, while the frozen and refrigerated samples were stored in a dark refrigerator and were exposed to light only during sampling. The storage temperatures were closely monitored throughout the study.

[4] = Plasma colistin concentration of a haemodialysis patient on CMS therapy (HPLC with fluorescence detection); format: in vivo, human; conditions: K2-EDTA plasma; for colistin concentration in plasma: HD patient
Description: HPLC analysis was performed at 25 ± 1 °C under isocratic conditions. All measurements were carried out at excitation and emission wavelengths of 260 nm and 315 nm, respectively, and the column temperature was maintained at 40 °C. The mobile phase consisted of a mixture of acetonitrile/tetrahydrofuran/distilled water (50:14:20, v/v/v) and was delivered at a flow rate of 1.6 mL/min. The sample injection volume was 50 μL.
Initially, the colistin and the internal standard (netilmicin sulfate, 20 μL) stock solutions were added to a portion of serum (200 μL). Following the addition of methanol (25 μL) and 10% trichloroacetic acid (25 μL) to the sample, it was vortexed for 10 s prior to centrifugation at 13,000 rpm for 5 min. The supernatant was then placed in an additional centrifuge tube and mixed with a 1 M sodium hydroxide solution (10 μL). The sample solution was loaded onto the solid-phase extraction (SPE) cartridge, which had been previously conditioned according to the following procedure.
SPE C18 cartridges (55 μm, 100 mg/mL; Phenomenex, Torrance, USA) were conditioned using acetone (1 mL) and methanol (1 mL) and equilibrated with 1% carbonate buffer (1 mL). The sample was then applied to the wet cartridge. After passing the sample through the cartridge, it was rinsed with methanol (1 mL) and carbonate buffer (1 mL), followed by a 100 mM FMOC-Cl solution (60 μL) and 90% methanol (3 mL). The derivatives were then eluted into a glass culture tube using acetone (500 μL). The eluted solution was mixed with a 0.6 M boric acid solution (100 μL) prior to vortex-mixing for 10 s, and then the obtained sample was injected into the HPLC system. All procedures were conducted at 25 ± 1 °C.
A patient (weight 52 kg, height 153.2 cm) with antineutrophilic cytoplasmic antibody-positive vasculitis undergoing renal replacement (intermittent haemodialysis, HD) was admitted to the hospital for rituximab and steroid pulse therapy. The HD patient’s disease had been complicated by Pneumocystis jiroveci pneumonia, herpes zoster, and MDRP infections. […] With the preliminary information of positive blood cultures, empiric treatment with cefepime (1 g every 12 h) was performed over 5 d. […] In addition, the following treatment parameters were employed: dialysate flow rate, 500 mL/min; blood flow rate, 100 mL/min; membrane surface area, 1.5 m^2; membrane type, APS-15MD New; HD frequency, twice per week; and session duration, 3 h. Samples were collected immediately prior to a dose or immediately prior to the next dose if CMS was not being administered every 24 h. The actual times of CMS administration and blood sampling were recorded. Samples were collected in potassium (K)2-ethylenediaminetetraacetic acid (EDTA)-containing tubes and centrifuged for 15 min within 2 h of collection. The resulting plasma sample was measured on the same day as blood collection. The HD clearance (CLHD) for colistin was calculated every hour during the start and end of the HD session as:
CMS was administered to the HD patient over 7 d (days 6–12), and six samples of blood were collected between days 7 and 12 of CMS therapy (Fig. 3). The initial sample was collected on day 7 approximately 20 h after the administration of CMS. All other samples were collected ~ 24 h after each dose. On the day of dialysis, the blood samples were collected at the start and end of the HD session.

[5] = human, in vivo
Description: as §1

[6] = parameters: method as in 2 sources, ref Sorlí et al. [24] ||| ref Garonzik et al. [25]; conditions: cited from earlier work
[7] = blood cultures from two peripheral vein sites of the HD patient, MDRP with metallo-beta-lactamase
[8] = critically ill patients, including those on HD and continuous renal replacement, ref Garonzik et al. [25]
[9] = patients suffering from nephrotoxicity, ref Sorlí et al. [24]

## NCC[C@H](O)C(=O)N[C@@H]1C[C@H](N)[C@@H](O[C@H]2O[C@H](CN)[C@@H](O)[C@H](O)[C@H]2O)[C@H](O)[C@H]1O[C@H]1O[C@H](CO)[C@@H](O)[C@H](N)[C@H]1O [amikacin]
[1]; [7]
  MIC: > 16 µg/mL

## C[C@@H](O)[C@H]1C(=O)N2C(C(=O)O)=C(S[C@@H]3CN[C@H](C(=O)N(C)C)C3)[C@H](C)[C@H]12 [meropenem]
[1]; [7]
  MIC: > 8 µg/mL

## CC(C)(O/N=C(\C(=O)N[C@@H]1C(=O)N2C(C(=O)[O-])=C(C[n+]3ccccc3)CS[C@H]12)c1csc(N)n1)C(=O)O [ceftazidime]
[1]; [7]
  MIC: > 32 µg/mL

## O=C(O)c1cn(C2CC2)c2cc(N3CCNCC3)c(F)cc2c1=O [ciprofloxacin]
[1]
  MIC: > 4 µg/mL

## CN(C)c1ccc(O)c2c1C[C@H]1C[C@H]3[C@H](N(C)C)C(O)=C(C(N)=O)C(=O)[C@@]3(O)C(O)=C1C2=O [minocycline]
[1]; [7]
  MIC: > 8 µg/mL

## C[C@H]1[C@H](NC(=O)/C(=N\OC(C)(C)C(=O)O)c2csc(N)n2)C(=O)N1S(=O)(=O)O [aztreonam]
[1]
  MIC: 16 µg/mL (≈ 36.7 µM)

## CNC(C)C1CCC(N)C(OC2C(N)CC(N)C(OC3OCC(C)(O)C(NC)C3O)C2O)O1 (stereo not drawn) [gentamicin]
[1]; [7]
  MIC: > 16 µg/mL

## colistin methanesulfonate [CMS]
[2]
  blood cultures after switching to CMS therapy: negative

## CCN1CCN(C(=O)N[C@@H](C(=O)N[C@@H]2C(=O)N3[C@@H]2SC(C)(C)[C@@H]3C(=O)O)c2ccccc2)C(=O)C1=O [piperacillin]
[1]; [7]
  MIC: 8 µg/mL (≈ 15.5 µM)

## colistin B
[3]; 0.10 μg/mL
  Refrigerated, recovery relative to freshly prepared samples: 102 ± 2%
  Room temperature, recovery relative to freshly prepared samples: 102 ± 2%
  Freeze-thaw, recovery relative to freshly prepared samples: 102 ± 3%
  Frozen, recovery relative to freshly prepared samples: 105 ± 2%
[3]; 8.00 μg/mL
  Refrigerated, recovery relative to freshly prepared samples: 98 ± 3%
  Room temperature, recovery relative to freshly prepared samples: 101 ± 2%
  Freeze-thaw, recovery relative to freshly prepared samples: 99 ± 3%
  Frozen, recovery relative to freshly prepared samples: 100 ± 3%

## colistin
[4]; day 7, approximately 20 h after administration of CMS (loading dose 250 mg)
  colistin concentration in plasma: 7.85 µg/mL
[4]; day 8, ~24 h after dose, CMS 75 mg every 24 h
  colistin concentration in plasma: 5.95 µg/mL
[4]; day 9, ~24 h after dose, CMS 75 mg every 24 h
  colistin concentration in plasma: 3.91 µg/mL
[4]; day 12, ~24 h after dose, CMS 75 mg every 24 h
  colistin concentration in plasma: 3.70 µg/mL
[4]; day 10, end of 3 h HD session
  colistin concentration in plasma at the end of the HD session: 2.75 µg/mL
[4]; day 10, start of 3 h HD session
  colistin concentration in plasma at the start of the HD session: 4.57 µg/mL
[5]
  HD clearance (CLHD): 30.7 mL/min
[6]; [8]
  average steady-state concentration of colistin, median: 2.36 µg/mL
  average steady-state concentration of colistin, range: 0.48 to 9.38 µg/mL
[6]; [9]
  minimal concentration of colistin, median: 1.18 µg/mL
  minimal concentration of colistin, range: 0.16 to 5.99 µg/mL
  peak concentration of colistin, median: 1.81 µg/mL
  peak concentration of colistin, range: 0.16 to 6.12 µg/mL
[1]; [7]
  minimum inhibitory concentration: ≤ 1 µg/mL

## CCN[C@@H]1C[C@H](N)[C@@H](O[C@H]2OC(CN)=CC[C@H]2N)[C@H](O)[C@H]1O[C@H]1OC[C@](C)(O)[C@H](NC)[C@H]1O [Netilmicin, netilmicin]
[3]; 0.10 μg/mL
  Refrigerated, recovery relative to freshly prepared samples: 104 ± 2%
  Room temperature, recovery relative to freshly prepared samples: 102 ± 3%
  Freeze-thaw, recovery relative to freshly prepared samples: 98 ± 3%
  Frozen, recovery relative to freshly prepared samples: 102 ± 3%
[3]; 8.00 μg/mL
  Refrigerated, recovery relative to freshly prepared samples: 101 ± 2%
  Room temperature, recovery relative to freshly prepared samples: 103 ± 2%
  Freeze-thaw, recovery relative to freshly prepared samples: 102 ± 2%
  Frozen, recovery relative to freshly prepared samples: 103 ± 3%

## CO/N=C(\C(=O)N[C@@H]1C(=O)N2C(C(=O)[O-])=C(C[N+]3(C)CCCC3)CS[C@H]12)c1csc(N)n1 [cefepime]
[1]
  MIC: > 32 µg/mL

## colistin A
[3]; 0.10 μg/mL
  Refrigerated, recovery relative to freshly prepared samples: 100 ± 1%
  Room temperature, recovery relative to freshly prepared samples: 102 ± 3%
  Freeze-thaw, recovery relative to freshly prepared samples: 97 ± 3%
  Frozen, recovery relative to freshly prepared samples: 105 ± 3%
[3]; 8.00 μg/mL
  Refrigerated, recovery relative to freshly prepared samples: 100 ± 3%
  Room temperature, recovery relative to freshly prepared samples: 99 ± 2%
  Freeze-thaw, recovery relative to freshly prepared samples: 100 ± 2%
  Frozen, recovery relative to freshly prepared samples: 102 ± 2%
